# Measurements as given in patent US8986650B2, “Complex folate-NOTA-Ga68” (Guerbet, priority 2005, dated 2015).
# Read-outs that look alike come from different tables or passages of the source.
# What was measured:
# ovarian cancer = details: patients, phase I/II study; cited from earlier work
# KB tumor cells (FR+) [1] = test system: KB tumor cells (FR+)
# Experimental: Nude mice bearing KB-tumors were used for this study.
# The NODAGA-LINKER-FOLATE derivative was labeled with ^67Ga by incubation at RT with 37 MBq of ^67GaCl3 in HEPES buffer. […] It was diluted with 0.9% NaCl at a concentration of 4 nmol/ml and this solution was injected to the mice (100 μl/0.4 nmol/mouse).
# One week before the tumor cell inoculation all mice were put under a folate low diet (SAFE company, semi-synthetic product with 50 μg/kg of folate) until the end of the study.
# At D0, the tumor inoculation was performed as follow: One million (10^6) of KB tumor cells (FR+) resuspended at 1×10^7 cells/ml in sterile PBS 0.01M, pH 7.4, were subcutaneously inoculated in the right flank of the nude mice in a volume of 100 μl. The tumors were allowed to grow for 8-9 days. For the in vivo evaluation the mice were grouped in groups of 3 mice per group.
# At D9 biodistribution studies were performed for the ^67Ga-NODAGA-LINKER-FOLATE (compound 2′ complexed by Ga67) in groups of mice as follow: • 3 groups: injection with ^67Ga-NODAGA-LINKER-FOLATE (compound 2′ complexed by Ga67) (0.4 nmol/10 μCi/100 μl/mouse) • 1 group: injection of Folic acid (40 nmol/100 μl/mouse) 5 min before the injection of ^67Ga-NODAGA-LINKER-FOLATE (compound 2′ complexed by Ga67) • 1 group: injection of Alimta (400 μg/100 μl/mouse) 1 h before the injection of ^67Ga-NODAGA-LINKER-FOLATE (compound 2′ complexed by Ga67) • Time points: 2 h, 4 h, 4 h (blocking with FA), 4 h (kidney blocking with Alimta), 24 h p.i. Results
# KB tumor cells (FR+) [2] = test: Biodistribution of NODAGA-LINKER-FOLATE-Ga68 in nude mice bearing KB-tumors; assay type: in vivo; details: for Ratio tumor:blood / Ratio tumor:bone / Ratio tumor:kidney / Ratio tumor:liver / Ratio tumor:muscle / Ratio tumor:pancreas / Ratio tumor:parotid: 1 h post-injection
# Experimental: The NODAGA-LINKER-FOLATE derivative was labeled with ^68Ga using the Modular-Lab automatic system by Eckert & Ziegler.
# NODAGA-LINKER-FOLATE-Ga68 compound (compound 2) was obtained in radiochemical purity preferably >92 to >98%.
# At D0, the tumor inoculation was performed as follow: One million (10^6) of KB tumor cells (FR+) resuspended at 1×10^7 cells/ml in sterile PBS 0.01M, pH 7.4, were subcutaneously inoculated in the right flank of the nude mice in a volume of 100 μl.
# At D8 biodistribution studies and PET/CT images were performed for NODAGA-folate-Ga68 (compound 2) in 2 groups of mice as follow: • 1 group: injection with NODAGA-LINKER-FOLATE-Ga68 (compound 2) (0.4 nmol/2 MBq/100 μl/mouse) • 1 group: injection of Alimta (400 μg/100 μl/mouse) 1 h before the injection of NODAGA-LINKER-FOLATE-Ga68 (compound 2) • Time point: 1 h p.i.
# OVCAR-3 tumors = test: Biodistribution and PET/CT imaging in mice model bearing OVCAR-3 tumor; assay type: in vivo, SCID mice
# Experimental: Similar protocol was used for OVCAR-3 tumor models.
# For the kidney blocking the antifolate Alimta, at a concentration of 4 mg/ml in PBS pH 7.4 was used.
# For the Folate Receptors blocking Folic acid in 100-fold excess (400 nmol/ml) in PBS pH 7.4 was used.
# [3] = Parotid gland uptake in normal mice without folate-free diet; assay type: in vivo; details: no folate-free diet
# [4] = 4 h Alimta pre-injection (400 μg/mouse, 1 h)
# [5] = 4 h blocking with Folic acid (100-fold excess, 5 min pre-injection)
# [6] = Group 1: Alimta 400 μg/mouse 1 h pre-injection
structure (smiles),measurement,setting,value
Nc1nc2ncc(CNc3ccc(C(=O)N[C@@H](CCC(=O)NCCNC(=O)CN(CCN(CCN(CC(=O)[O-])CC(=O)[O-])CC(=O)[O-])CC(=O)[O-])C(=O)O)cc3)nc2c(=O)[nH]1.[111In] [111In-DTPA-folate],Target-tissue uptake and non target-tissue clearance,ovarian cancer,rapid target-tissue uptake and non target-tissue clearance
Nc1nc2ncc(CNc3ccc(C(=O)N[C@@H](CCC(=O)NCCNC(=O)CCC(C(=O)[O-])N4CCN(CC(=O)[O-])CCN(CC(=O)[O-])CC4)C(=O)O)cc3)nc2c(=O)[nH]1.[67Ga+3] (some centres unmarked) [NODAGA-LINKER-FOLATE-Ga67],"Biodistribution, Parotid gland",KB tumor cells (FR+) [1]; 2 h,9.10 ± 3.39
same,"Biodistribution, adrenal",KB tumor cells (FR+) [1]; 2 h,3.09 ± 0.52
same,"Biodistribution, blood",KB tumor cells (FR+) [1]; 2 h,0.09 ± 0.02
same,"Biodistribution, intestine",KB tumor cells (FR+) [1]; 2 h,0.50 ± 0.12
same,"Biodistribution, kidney",KB tumor cells (FR+) [1]; 2 h,142.14 ± 15.46
same,"Biodistribution, liver",KB tumor cells (FR+) [1]; 2 h,1.38 ± 0.50
same,"Biodistribution, lung",KB tumor cells (FR+) [1]; 2 h,1.32 ± 0.15
same,"Biodistribution, muscle",KB tumor cells (FR+) [1]; 2 h,1.49 ± 0.18
same,"Biodistribution, pancreas",KB tumor cells (FR+) [1]; 2 h,2.91 ± 0.08
same,"Biodistribution, pituitary",KB tumor cells (FR+) [1]; 2 h,0.53 ± 0.24
same,"Biodistribution, spleen",KB tumor cells (FR+) [1]; 2 h,0.48 ± 0.11
same,"Biodistribution, stomach",KB tumor cells (FR+) [1]; 2 h,1.58 ± 0.12
same,"Biodistribution, Parotid gland",KB tumor cells (FR+) [1]; 4 h,8.58 ± 2.33
same,"Biodistribution, adrenal",KB tumor cells (FR+) [1]; 4 h,2.80 ± 0.10
same,"Biodistribution, blood",KB tumor cells (FR+) [1]; 4 h,0.06 ± 0.01
same,"Biodistribution, intestine",KB tumor cells (FR+) [1]; 4 h,0.43 ± 0.16
same,"Biodistribution, kidney",KB tumor cells (FR+) [1]; 4 h,130.31 ± 14.65
same,"Biodistribution, liver",KB tumor cells (FR+) [1]; 4 h,1.07 ± 0.18
same,"Biodistribution, lung",KB tumor cells (FR+) [1]; 4 h,1.36 ± 0.37
same,"Biodistribution, muscle",KB tumor cells (FR+) [1]; 4 h,2.12 ± 0.31
same,"Biodistribution, pancreas",KB tumor cells (FR+) [1]; 4 h,2.92 ± 0.11
same,"Biodistribution, pituitary",KB tumor cells (FR+) [1]; 4 h,0.79 ± 0.74
same,"Biodistribution, spleen",KB tumor cells (FR+) [1]; 4 h,0.46 ± 0.10
same,"Biodistribution, stomach",KB tumor cells (FR+) [1]; 4 h,1.47 ± 0.08
same,"Biodistribution, Parotid gland",KB tumor cells (FR+) [1]; [4],6.10 ± 2.09
same,"Biodistribution, adrenal",KB tumor cells (FR+) [1]; [4],1.75 ± 0.23
same,"Biodistribution, blood",KB tumor cells (FR+) [1]; [4],0.04 ± 0.01
same,"Biodistribution, intestine",KB tumor cells (FR+) [1]; [4],0.50 ± 0.37
same,"Biodistribution, kidney",KB tumor cells (FR+) [1]; [4],19.13 ± 6.66
same,"Biodistribution, liver",KB tumor cells (FR+) [1]; [4],0.88 ± 0.26
same,"Biodistribution, lung",KB tumor cells (FR+) [1]; [4],0.68 ± 0.18
same,"Biodistribution, muscle",KB tumor cells (FR+) [1]; [4],1.26 ± 0.38
same,"Biodistribution, pancreas",KB tumor cells (FR+) [1]; [4],2.20 ± 0.69
same,"Biodistribution, pituitary",KB tumor cells (FR+) [1]; [4],0.59 ± 0.41
same,"Biodistribution, spleen",KB tumor cells (FR+) [1]; [4],0.31 ± 0.13
same,"Biodistribution, stomach",KB tumor cells (FR+) [1]; [4],0.84 ± 0.31
same,"Biodistribution, Parotid gland",KB tumor cells (FR+) [1]; [5],0.18 ± 0.06
same,"Biodistribution, adrenal",KB tumor cells (FR+) [1]; [5],0.02 ± 0.01
same,"Biodistribution, blood",KB tumor cells (FR+) [1]; [5],0.00 ± 0.00
same,"Biodistribution, intestine",KB tumor cells (FR+) [1]; [5],0.08 ± 0.07
same,"Biodistribution, kidney",KB tumor cells (FR+) [1]; [5],6.49 ± 1.03
same,"Biodistribution, liver",KB tumor cells (FR+) [1]; [5],0.06 ± 0.00
same,"Biodistribution, lung",KB tumor cells (FR+) [1]; [5],0.06 ± 0.00
same,"Biodistribution, muscle",KB tumor cells (FR+) [1]; [5],0.03 ± 0.00
same,"Biodistribution, pancreas",KB tumor cells (FR+) [1]; [5],0.05 ± 0.00
same,"Biodistribution, pituitary",KB tumor cells (FR+) [1]; [5],−0.02 ± 0.01
same,"Biodistribution, spleen",KB tumor cells (FR+) [1]; [5],0.04 ± 0.01
same,"Biodistribution, stomach",KB tumor cells (FR+) [1]; [5],0.09 ± 0.06
same,"Biodistribution, Parotid gland",KB tumor cells (FR+) [1]; 24 h,5.57 ± 0.82
same,"Biodistribution, adrenal",KB tumor cells (FR+) [1]; 24 h,5.04 ± 5.96
same,"Biodistribution, blood",KB tumor cells (FR+) [1]; 24 h,0.04 ± 0.02
same,"Biodistribution, intestine",KB tumor cells (FR+) [1]; 24 h,0.37 ± 0.13
same,"Biodistribution, kidney",KB tumor cells (FR+) [1]; 24 h,97.62 ± 11.59
same,"Biodistribution, liver",KB tumor cells (FR+) [1]; 24 h,0.87 ± 0.16
same,"Biodistribution, lung",KB tumor cells (FR+) [1]; 24 h,0.94 ± 0.31
same,"Biodistribution, muscle",KB tumor cells (FR+) [1]; 24 h,1.14 ± 0.01
same,"Biodistribution, pancreas",KB tumor cells (FR+) [1]; 24 h,2.37 ± 0.17
same,"Biodistribution, pituitary",KB tumor cells (FR+) [1]; 24 h,0.41 ± 0.39
same,"Biodistribution, spleen",KB tumor cells (FR+) [1]; 24 h,0.37 ± 0.13
same,"Biodistribution, stomach",KB tumor cells (FR+) [1]; 24 h,1.01 ± 0.10
same,Time of maximum tumor uptake,KB tumor cells (FR+) [1]; KB-tumor bearing nude mice,2 h p.i.
same,Tumor uptake,KB tumor cells (FR+) [1]; at 24 h p.i.,remains high
same,Specificity of tumor uptake,KB tumor cells (FR+) [1]; blocking experiment with folic acid,specific
same,Kidney uptake,KB tumor cells (FR+) [1]; with the use of Alimta,significantly reduced
same,Tumor uptake,KB tumor cells (FR+) [1]; with the use of Alimta,remained the same
"Nc1nc2ncc(CNc3ccc(C(=O)N[C@@H](CCC(=O)NCCNC(=O)CCC(C(=O)O)N4CCN(CC(=O)O)CCN(CC(=O)O)CC4)C(=O)O)cc3)nc2c(=O)[nH]1 (some centres unmarked) [NODAGA-LINKER-FOLATE-Ga68, folate-NODAGA-Ga68, metal not drawn]",Ratio tumor:blood,KB tumor cells (FR+) [2]; [6],49.33
same,Ratio tumor:bone,KB tumor cells (FR+) [2]; [6],20.96
same,Ratio tumor:kidney,KB tumor cells (FR+) [2]; [6],0.69
same,Ratio tumor:liver,KB tumor cells (FR+) [2]; [6],10.49
same,Ratio tumor:muscle,KB tumor cells (FR+) [2]; [6],13.32
same,Ratio tumor:pancreas,KB tumor cells (FR+) [2]; [6],9.30
same,Ratio tumor:parotid,KB tumor cells (FR+) [2]; [6],2.63
same,Ratio tumor:blood,KB tumor cells (FR+) [2]; Group 2: no Alimta,64.85
same,Ratio tumor:bone,KB tumor cells (FR+) [2]; Group 2: no Alimta,28.11
same,Ratio tumor:kidney,KB tumor cells (FR+) [2]; Group 2: no Alimta,0.17
same,Ratio tumor:liver,KB tumor cells (FR+) [2]; Group 2: no Alimta,6.64
same,Ratio tumor:muscle,KB tumor cells (FR+) [2]; Group 2: no Alimta,9.95
same,Ratio tumor:pancreas,KB tumor cells (FR+) [2]; Group 2: no Alimta,6.89
same,Ratio tumor:parotid,KB tumor cells (FR+) [2]; Group 2: no Alimta,1.72
same,Uptake in the parotid gland,KB tumor cells (FR+) [2]; KB-tumor mice under folate-free diet,High uptake
same,PET/CT images: background,OVCAR-3 tumors; 1 h post injection,negligible background
same,PET/CT images: kidneys,OVCAR-3 tumors; 1 h post injection,high uptake in the kidneys
same,PET/CT images: tumors,OVCAR-3 tumors; 1 h post injection,clear visualization of the tumors
same,Quality of PET/CT images,"OVCAR-3 tumors; mouse, in vivo",Very satisfying
same,High uptake in the parotid gland,[3],This was not the case
